Laboratory results as given in US9718810B2, “Solid state forms of a quinazoline derivative and its use as a BRAF inhibitor” (Ignyta, Inc., priority 2013, dated 2017).
Read-outs that look alike come from different tables or passages of the source.

How the values were obtained:
[1] = Kinetic solubility measurement in pure water; assay type: physicochemical; conditions: for pH: pH of the aqueous solubility sample; for Aqueous solubility: pure water, ambient room temperature, 20 minutes, expressed as free base
Description: Typically 1-5 mg of samples were diluted to 10 mL with sample solvent (1:1 (v:v) Mobile phase A:Mobile phase B) and the assay concentrations were determined from an average of duplicate injections using the following HPLC method. The purity and impurity analyses are done using conventional HPLC.
The free base and the salts listed in the table below were added in excess (saturation) to water in a 2.0 mL glass vial. The samples were put on an end-to-end rotator (50 rpm) at ambient room temperature up to 20 minutes. After 20 minutes, a sampling was taken for HPLC analysis.

[2] = Gravimetric vapor sorption (GVS); assay type: physicochemical; conditions: for hygroscopicity: adsorption and desorption curves overlap; for XRPD after GVS analysis: form change after GVS cycles
Description: GVS experiments have been carried out using the DVS-HT instrument (Surface Measurement Systems, London, UK). This instrument measures the uptake and loss of vapor gravimetrically using a recording ultra-microbalance with a mass resolution of ±0.1 μg. The vapor partial pressure (±1.0%) around the sample is controlled by mixing saturated and dry carrier gas streams using electronic mass flow controllers. The desired temperature is maintained at ±0.1° C. The samples (1-10 mg) were placed into the DVSHT and DVS-1 instruments at the desired temperature. The sample was loaded and unloaded at 40% RH and 25° C. (typical room conditions). A moisture sorption isotherm was performed as outlined below (2 scans giving 1 complete cycle). The software uses a least squares minimization procedure together with a model of the mass relaxation, to predict an asymptotic value. The measured mass equilibration value must be within 2% of that predicted by the software before the next % RH value is selected. The minimum equilibration time was set to 1 hour and the maximum to 4 hours.

[3] = Solid-state stress stability at 40° C./75% RH; assay type: physicochemical; conditions: for Area Purity / HPLC Assay / XRPD: 40° C./75% RH; for solid state stability: 40° C./75% relative humidity without desiccant
Description: Typically 1-5 mg of samples were diluted to 10 mL with sample solvent (1:1 (v:v) Mobile phase A:Mobile phase B) and the assay concentrations were determined from an average of duplicate injections using the following HPLC method. The purity and impurity analyses are done using conventional HPLC. Samples of Compound I free base and its salts (approximately 10 mg each) were stored at 40° C./75% RH in open glass vials (4 cm^3) over four weeks without desiccant. Stress stability studies were performed to get a timely impression of the influence of temperature and humidity on Form stability.

[4] = molecular target: T1, BRAF V600E (Homo sapiens, UniProt P15056, V600E); assay: BRAF V600E inhibition in isolated systems; assay type: biochemical; conditions: in vitro
[5] = molecular target: T1, BRAF V600E; assay: BRAF V600E inhibition in intact cells; assay type: cell-based; conditions: in vitro
[6] = Solubility of Form A0 in organic solvents at the boiling point; assay type: physicochemical; conditions: for solubility: organic solvent or mixture, thermodynamic from solid, read-out: Solubility Estimate at The Boiling Point
Description: The following procedure was used to assess the solubility of the anhydrous free base of Compound I (Form A0) in a range of nine organic solvents listed in Table 3. Using 1.8 mL HPLC vials, approximately 10 mg of Form A0 was stirred at the boiling point in 200 μL of nine different solvents. […] The additions were stopped when the solid dissolved or when 1000 μL had been dispensed. […] Methyl t-butyl ether was chosen as an anti-solvent (<10 mg/mL).

[7] = Methyl-t-butyl Ether, 55.2 ° C.

T1 sequence (P15056 whole entry V600E): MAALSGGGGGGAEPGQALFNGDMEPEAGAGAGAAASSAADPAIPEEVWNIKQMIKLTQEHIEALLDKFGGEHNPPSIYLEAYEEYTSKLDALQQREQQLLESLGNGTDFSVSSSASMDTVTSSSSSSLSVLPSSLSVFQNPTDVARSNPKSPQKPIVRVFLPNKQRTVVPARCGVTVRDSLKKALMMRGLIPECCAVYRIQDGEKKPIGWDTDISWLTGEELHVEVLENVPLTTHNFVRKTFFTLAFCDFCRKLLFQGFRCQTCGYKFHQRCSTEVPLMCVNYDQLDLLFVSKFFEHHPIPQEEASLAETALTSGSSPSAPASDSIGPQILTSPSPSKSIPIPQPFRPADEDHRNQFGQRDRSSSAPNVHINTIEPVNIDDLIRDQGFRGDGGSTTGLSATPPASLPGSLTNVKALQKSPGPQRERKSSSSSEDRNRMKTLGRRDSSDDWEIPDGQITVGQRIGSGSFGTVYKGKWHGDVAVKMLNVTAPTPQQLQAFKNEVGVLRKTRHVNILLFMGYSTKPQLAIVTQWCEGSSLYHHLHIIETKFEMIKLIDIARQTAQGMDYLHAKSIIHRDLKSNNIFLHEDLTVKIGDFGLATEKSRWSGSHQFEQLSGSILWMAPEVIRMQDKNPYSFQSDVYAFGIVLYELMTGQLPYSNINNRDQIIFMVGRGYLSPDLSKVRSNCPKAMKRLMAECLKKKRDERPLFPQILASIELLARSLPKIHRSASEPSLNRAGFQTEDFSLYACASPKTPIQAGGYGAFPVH

pH [1] | Aqueous solubility [1] | amount of moisture adsorbed at 75% RH ([2]; 25° C.) | GVS: Percent increase in mass at 90% RH ([2]; 25° C.) | hygroscopicity [2] | XRPD after GVS analysis [2] | Area Purity ([3]; 0 days) | HPLC Assay ([3]; 0 days) | XRPD ([3]; 0 days) | Area Purity ([3]; 14 days) | HPLC Assay ([3]; 14 days) | XRPD ([3]; 14 days) | Area Purity ([3]; 28 days) | HPLC Assay ([3]; 28 days) | XRPD ([3]; 28 days) | solid state stability ([3]; 28 days) | Structure (SMILES) | also measured
6.6 | 0.1 mg/mL | less than 0.7% | 1.0% | not hygroscopic | No change |  |  |  |  |  |  |  |  |  |  | COc1cc2ncnc(Oc3cccc(NC(=O)Nc4cc(C(C)(C)C(F)(F)F)on4)c3)c2cc1OC [Bromide A1] | GVS: Percent increase in mass at 90% RH ([2]; 25° C., listed as Bromide Form A1): approximately 1%; XRPD after GVS analysis ([2]; listed as Bromide Form A1): compares nicely to the pattern of the material before GVS
7.3 | 0.56 mg/mL |  | 1.7% |  | No change | 99.5% | 99.9% | Form A1 | 97.6% | 98.7% | Form A1 | 96.4% | 100.4% | Form A1 | stable for 28 days | COc1cc2ncnc(Oc3cccc(NC(=O)Nc4cc(C(C)(C)C(F)(F)F)on4)c3)c2cc1OC.Cl [Chloride A1] | Area Purity ([3]; 7 days): 98.7%; HPLC Assay ([3]; 7 days): 98.3%; XRPD ([3]; 7 days): Form A1; dissolution in pure water, ranking of salts ([1]; pure water (pH=7)): best salt for dissolution in pure water; XRPD after GVS analysis ([2]; listed as Chloride Form A1): No form change occurred
 |  |  |  |  |  |  |  |  |  |  |  |  |  |  |  | COc1cc2ncnc(Oc3cccc(NC(=O)Nc4cc(C(C)(C)C(F)(F)F)on4)c3)c2cc1OC [Compound I, 1-[3-(6,7-dimethoxy-quinazolin-4-yloxy)-phenyl]-3-[5-(2,2,2-trifluoro-1,1-dimethyl-ethyl)-isoxazol-3-yl]-urea] | inhibits BRAF V600E [4]: low nanomolar concentrations; inhibits BRAF V600E [5]: low nanomolar concentrations
6.6 | 0.07 mg/mL |  |  |  | No form change occurred |  |  |  |  |  |  |  |  |  |  | COc1cc2ncnc(Oc3cccc(NC(=O)Nc4cc(C(C)(C)C(F)(F)F)on4)c3)c2cc1OC.O=C(O)CC(=O)O [Malonate A1] | total uptake of water ([2]; RH range of 0-90%, 25° C.): < 4%
6.8 | 0.09 mg/mL | less than 1.8% | 2.7% | not hygroscopic | No change |  |  |  |  |  |  |  |  |  |  | COc1cc2ncnc(Oc3cccc(NC(=O)Nc4cc(C(C)(C)C(F)(F)F)on4)c3)c2cc1OC.O=P(O)(O)O [Phosphate A1] | GVS: Percent increase in mass at 90% RH ([2]; 25° C., listed as phosphate Form A1): approximately 2.7%; XRPD after GVS analysis ([2]; listed as phosphate Form A1): compares nicely to the pattern of the material before GVS

Structure (SMILES) | pH [1] | Aqueous solubility [1] | amount of moisture adsorbed at 75% RH ([2]; 25° C.) | GVS: Percent increase in mass at 90% RH ([2]; 25° C.) | hygroscopicity [2] | XRPD after GVS analysis [2] | Area Purity ([3]; 0 days) | HPLC Assay ([3]; 0 days) | XRPD ([3]; 0 days) | Area Purity ([3]; 14 days) | HPLC Assay ([3]; 14 days) | XRPD ([3]; 14 days) | Area Purity ([3]; 28 days) | HPLC Assay ([3]; 28 days) | XRPD ([3]; 28 days) | solid state stability ([3]; 28 days) | also measured
COc1cc2ncnc(Oc3cccc(NC(=O)Nc4cc(C(C)(C)C(F)(F)F)on4)c3)c2cc1OC [Form A0] | 7.4 |  |  | 1.3% |  | compares nicely to the pattern of the material before GVS | 98.3% | 100.0% | Form A0 | 98.5% | 100.5% | Form A0 | 98.2% | 102.4% | Form A0 | stable for 28 days | Area Purity ([3]; 6 days): 98.5%; HPLC Assay ([3]; 6 days): 102.3%; XRPD ([3]; 6 days): Form A0; Aqueous solubility ([1]; listed as Free base A0): <0.01 mg/mL; Solubility Estimate at The Boiling Point [6, 7]: <10 mg/mL; solubility ([6]; Acetone, 56.5 ° C.): > 50 mg/mL; solubility ([6]; Acetonitrile, 82.0 ° C.): < 20 mg/mL; solubility ([6]; Chloroform, 61.2 ° C.): > 50 mg/mL; solubility ([6]; Dichloromethane, 40.0 ° C.): > 20 mg/mL; solubility ([6]; Ethyl Acetate, 77.1 ° C.): < 30 mg/mL; solubility ([6]; Methanol, 64.7 ° C.): < 20 mg/mL; solubility [6, 7]: < 10 mg/mL; solubility ([6]; Tetrahydrofuran, 66.0 ° C.): > 50 mg/mL; solubility ([6]; Toluene, 110.6 ° C.): < 30 mg/mL; XRPD after GVS analysis ([2]; listed as A0): No change; moisture uptake ([2]; from 40 to about 90% RH): less than 1.3 % (w/w)
